Measured values published in US8034806B2, “Bicyclic mGluR5 positive allosteric modulators and methods of making and using same” (Vanderbilt University, priority 2007, dated 2011).
pEC50: −log10 of the molar value.

Biological target: T1, rat mGluR5 (Rattus norvegicus, UniProt P31424)
T1 construct: expressed in transfected cells; host or cells: HEK (human embryonic kidney) cells
Test: Potentiation of glutamate response, calcium fluorescence (FDSS) in HEK cells transfected with rat mGluR5
Type: cell-based
Conditions: for pEC50: HEK cells transfected with rat mGluR5, EC20 concentration of glutamate, read-out: mGluR5 Potentiator EC50; for mGluR5 Potentiator Max: maximum extent of potentiation, normalized to the maximal response to agonist, in % (unit assumed)
Protocol: Human embryonic kidney (HEK) cells transfected with rat mGluR5 were plated in clear bottom assay plates for assay in a Functional Drug Screening System (FDSS). The cells were loaded with a […] fluorescent dye (e.g., Fluo-4), and the plates were washed and placed in the FDSS instrument. After establishment of a fluorescence baseline for twelve seconds, the compounds of the present invention were added to the cells, and the response in cells was measured. Five minutes later, an mGluR5 agonist (e.g., glutamate, 3,5-dihydroxyphenylglycine, or quisqualate) was added to the cells, and the response of the cells was measured. Potentiation of the agonist response of mGluR5 by the compounds in the present invention was observed as an increase in response to non-maximal concentrations of agonist (here, glutamate) in the presence of compound compared to the response to agonist in the absence of compound.
The above described assay operated in two modes. In the first mode, a range of concentrations of the present compounds were added to cells, followed by a single fixed concentration of agonist. If a compound acted as a potentiator, an EC50 value for potentiation and a maximum extent of potentiation by the compound at this concentration of agonist was determined by non-linear curve fitting. In the second mode, several fixed concentrations of the present compounds were added to various wells on a plate, followed by a range of concentrations of agonist for each concentration of present compound; the EC50 values for the agonist at each concentration of compound were determined by non-linear curve fitting. A decrease in the EC50 value of the agonist with increasing concentrations of the present compounds (a leftward shift of the agonist concentration-response curve) is an indication of the degree of mGluR5 potentiation at a given concentration of the present compound. An increase in the EC50 value of the agonist with increasing concentrations of the present compounds (a rightward shift of the agonist concentration-response curve) is an indication of the degree of mGluR5 antagonism at a given concentration of the present compound. The second mode also indicates whether the present compounds also affect the maximum response to mGluR5 to agonists.
Human embryonic kidney (HEK) cells transfected with rat mGluR5 were plated in clear-bottomed, poly-D-lysine-coated assay plates in glutamate-glutamine-free medium growth and incubated overnight at 37° C. in 5% CO2. The following day, cells were loaded with 2 μM calcium indicator dye, fluo-4 AM, for 1 h at 37° C. Dye was removed and replaced with assay buffer containing 1× Hanks balanced salt solution (Invitrogen, Carlsbad, Calif.), 20 mM HEPES, and 2.5 mM probenecid, pH 7.4. Cell plates were then loaded into the Functional Drug Screening System 6000 (FDSS 6000, Hamamatsu, Japan). After establishment of a fluorescence baseline for twelve seconds, the compounds of the present invention were added to the cells, and the response in cells was measured. Five minutes later, an mGluR5 agonist (e.g., glutamate, 3,5-dihydroxyphenylglycine, or quisqualate) was added to the cells, and the response of the cells was measured during a 1 minute incubation with agonists. Typically, the effect of test compounds of the present invention was on an EC20 concentration of glutamate was measured. All test compounds were dissolved and diluted in 100% DMSO and then serially diluted into assay buffer for a 2.5× stock in 0.25% DMSO; stock compounds were then added to the assay for a final DMSO concentration of 0.1%. Calcium fluorescence measures were recorded as fold over basal fluorescence; raw data was then normalized to the maximal response to agonist. Potentiation of the agonist response of mGluR5 by the compounds in the present invention was observed as an increase in response to non-maximal concentrations of agonist (here, glutamate) in the presence of compound compared to the response to agonist in the absence of compound. […]

T1 sequence (P31424 21-1203): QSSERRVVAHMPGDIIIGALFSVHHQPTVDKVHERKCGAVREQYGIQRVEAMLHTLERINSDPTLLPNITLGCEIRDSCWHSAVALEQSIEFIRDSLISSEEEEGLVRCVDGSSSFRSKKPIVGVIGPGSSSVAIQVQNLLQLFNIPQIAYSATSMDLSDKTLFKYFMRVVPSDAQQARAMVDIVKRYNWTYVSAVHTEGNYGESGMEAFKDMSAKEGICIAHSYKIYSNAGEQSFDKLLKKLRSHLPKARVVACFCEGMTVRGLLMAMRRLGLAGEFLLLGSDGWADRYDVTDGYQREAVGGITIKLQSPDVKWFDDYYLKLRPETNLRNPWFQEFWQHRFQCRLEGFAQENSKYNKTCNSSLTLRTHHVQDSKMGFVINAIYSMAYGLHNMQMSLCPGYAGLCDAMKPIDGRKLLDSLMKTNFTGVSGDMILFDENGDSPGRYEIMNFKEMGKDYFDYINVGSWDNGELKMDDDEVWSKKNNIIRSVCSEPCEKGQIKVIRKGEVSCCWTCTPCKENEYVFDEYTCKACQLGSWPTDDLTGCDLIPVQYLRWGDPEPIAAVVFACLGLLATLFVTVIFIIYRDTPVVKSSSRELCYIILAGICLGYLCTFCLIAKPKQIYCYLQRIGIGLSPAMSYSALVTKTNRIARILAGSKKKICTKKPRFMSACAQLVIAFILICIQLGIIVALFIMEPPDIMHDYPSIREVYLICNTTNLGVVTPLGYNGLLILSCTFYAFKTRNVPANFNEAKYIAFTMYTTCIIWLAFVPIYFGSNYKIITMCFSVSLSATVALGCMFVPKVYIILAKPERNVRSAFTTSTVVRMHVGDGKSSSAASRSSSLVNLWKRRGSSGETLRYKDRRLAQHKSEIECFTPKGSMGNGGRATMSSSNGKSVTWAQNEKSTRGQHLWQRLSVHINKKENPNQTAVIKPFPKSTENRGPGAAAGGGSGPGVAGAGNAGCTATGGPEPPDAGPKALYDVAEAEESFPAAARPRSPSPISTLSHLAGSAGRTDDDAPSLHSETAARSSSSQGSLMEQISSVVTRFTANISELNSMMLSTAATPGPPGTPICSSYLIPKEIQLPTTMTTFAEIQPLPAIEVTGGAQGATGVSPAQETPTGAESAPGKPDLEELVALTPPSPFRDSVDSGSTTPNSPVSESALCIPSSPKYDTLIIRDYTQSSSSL

Row | SMILES | pEC50 | mGluR5 Potentiator Max
1 | CN1CCc2cc(C#Cc3ccccc3)ccc2C1=O [VU000068] | 7.60 | 53.4
2 | CCCN1CCc2cc(C#Cc3ccccc3)ccc2C1=O [VU000069] | 7.79 | 96.5
3 | CCCCN1CCc2cc(C#Cc3ccccc3)ccc2C1=O [VU000070] | 7.02 | 96.7
4 | O=C1c2ccc(C#Cc3ccccc3)cc2CCN1Cc1ccccc1 [VU000071] | 6.26 | 89.9
5 | O=C(CN1CCc2cc(C#Cc3ccccc3)ccc2C1=O)OCc1ccccc1 [VU000072] | 7.11 | 88.4
6 | CCOC(=O)C(CC)N1CCc2cc(C#Cc3ccccc3)ccc2C1=O (stereo not shown) [VU000073] | 7.06 | 85.4
7 | O=C1c2ccc(C#Cc3ccccc3)cc2CCN1CC1CC1 [VU000098] | 7.76 | 69.4
8 | O=C1c2ccc(C#Cc3ccccc3)cc2CCN1CC1CCC1 [VU000099] | 7.57 | 90.7
9 | O=C1c2ccc(C#Cc3ccccc3)cc2CCN1CCN1CCC1 [VU000100] | 5.39 | 76.3
10 | O=C1c2ccc(C#Cc3ccccc3)cc2CCN1CCN1CCOCC1 [VU000101] | 5.45 | 84
11 | O=C1c2ccc(C#Cc3ccccc3)cc2CCN1CCN1CCC(O)CC1 [VU000102] | 5.39 | 45.7
12 | Cc1ccccc1C#Cc1ccc2c(c1)CCNC2=O [VU000105] | 6.21 | 53.4
13 | Cc1cccc(C#Cc2ccc3c(c2)CCNC3=O)c1 [VU000106] | 6.76 | 75.7
14 | O=C1NCCc2cc(C#Cc3ccc(F)cc3)ccc21 [VU000107] | 6.59 | 81
15 | O=C1NCCc2cc(C#Cc3ccccc3F)ccc21 [VU000108] | 6.84 | 80.4
16 | COc1ccc(C#Cc2ccc3c(c2)CCNC3=O)cc1 [VU000109] | – | 28.2
17 | COc1cccc(C#Cc2ccc3c(c2)CCNC3=O)c1 [VU000110] | 5.47 | 58.1
18 | O=C1NCCc2cc(C#Cc3ccccc3Cl)ccc21 [VU000111] | 5.31 | 53.2

Row | SMILES | pEC50 | mGluR5 Potentiator Max
19 | Cc1cc(C#Cc2ccc3c(c2)CCNC3=O)ccc1F [VU000112] | 5.44 | 49.7
20 | O=C1NCCc2cc(C#Cc3ccc(Cl)cc3)ccc21 [VU000113] | – | 28.6
21 | O=C1NCCc2cc(C#Cc3cccc(Cl)c3)ccc21 [VU000114] | 6.33 | 67.9
22 | O=C1NCCc2cc(C#Cc3ccc(F)cc3F)ccc21 [VU000115] | 6.07 | 58.7
23 | O=C1NCCc2cc(C#Cc3cc(F)cc(F)c3)ccc21 [VU000116] | 5.52 | 35.6
24 | O=C1NCCc2cc(C#Cc3ccncc3)ccc21 [VU000117] | 6.61 | 58
25 | CN(C)c1ccc(C#Cc2ccc3c(c2)CCNC3=O)cc1 [VU000118] | – | 28.9
26 | COc1ccc(C#Cc2ccc3c(c2)CCNC3=O)c(C)c1 [VU000119] | – | 29.7
27 | O=C1NCCc2cc(C#Cc3cccc(C(F)(F)F)c3)ccc21 [VU000120] | – | 33.5
28 | O=C1NCCc2cc(C#Cc3ccccc3C(F)(F)F)ccc21 [VU000121] | – | 34.8
29 | O=C(CN1CCc2cc(C#Cc3ccccc3)ccc2C1=O)NCC1CC1 [VU000124] | 6.02 | 53.7
30 | O=C(CN1CCc2cc(C#Cc3ccccc3)ccc2C1=O)NC1CC1 [VU000125] | 5.51 | 52.6
31 | CN(C)CCNC(=O)CN1CCc2cc(C#Cc3ccccc3)ccc2C1=O [VU000126] | 8.78 | 35.4
32 | COCCNC(=O)CN1CCc2cc(C#Cc3ccccc3)ccc2C1=O [VU000127] | 5.51 | 52.3
33 | O=C(CN1CCc2cc(C#Cc3ccccc3)ccc2C1=O)N1CCC(O)CC1 [VU000128] | – | 37.6
34 | O=C(CN1CCc2cc(C#Cc3ccccc3)ccc2C1=O)NCCN1CCCCC1 [VU000129] | – | 30
35 | O=C(CN1CCc2cc(C#Cc3ccccc3)ccc2C1=O)N1CCOCC1 [VU000130] | 5.63 | 55.4
36 | CN1CCN(C(=O)CN2CCc3cc(C#Cc4ccccc4)ccc3C2=O)CC1 [VU000131] | 5.14 | 35.4
